From publication PMC4541410 (Scientific Reports, 2015)
Like-named read-outs stand apart in the source and are kept apart here. Where a SMILES comes first, the peptide text is derived from it.

Experiments:
[1] = target: T1, gp41 6-HB formation between N36 and C34 (Human immunodeficiency virus type 1 group M subtype B, UniProt P04578); assay: biochemical; type: biochemical, HIV-1
T1 construct: gp41 NHR (“N36”, 546-581); made in house; host or cells: chemical solid-phase FMOC synthesis
Experimental: Inhibition of gp41 six-helix bundle formation by a testing peptide was determined with a sandwich ELISA described previously. […] A450 was determined by an ELISA reader (Ultra 384, Tecan).

[2] = tested on: HIV-1IIIB (subtype B, X4); assay: Inhibition of HIV-1 IIIB infection by peptides in the presence of sera from HIV-1-infected patients; type: cell-based; conditions: for IC50: MT-2 cells, triplicate, mean ± SD
Experimental: Inhibition of peptides on HIV-1IIIB (subtype B, X4)infection in the presence of HIV-1-infected patients’ sera was determined as previously described. Briefly, each peptide was mixed with serially diluted serum from an HIV-1-infected patient at room temperature for 30 min. Next, the mixture of peptide/serum and HIV-1 (100 TCID50) were added to MT-2 cells (1 × 10^5/ml) in RPMI 1640 medium containing 10% FBS. After incubation at 37 °C overnight, the culture supernatants were replaced with fresh culture medium.

proteinase K = assay: in vitro; conditions: proteinase K in PBS, pH 7.2
Experimental: (§1) Chromatographic analyses were performed using an ODS-C8 column (5 μm, 100 mm × 2.0 mm ID) kept at ambient temperature. The mobile phase was composed of acetonitrile-water-formic acid in the ratio of 50:50:0.1 (v/v/v) at a flow rate of 0.3 mL/min. The sample injection volume was 10 μL. Acetonitrile was HPLC grade and other chemical reagents and solvents were analytical grade. A Thermo TSQ Quantum Discovery MAX triple-quadruple tandem mass spectrometer equipped with ESI source (San Jose, CA) and Surveyor LC pump were used for LC-MS analysis. Data acquisition and data processing were performed by using Xcalibur software and LCQuan 2.0 data analysis program (Thermo Finnigan), respectively. Optimized MS parameters were as below: 4800 V spray voltage, 40.0 psi sheath gas pressure, 1.0 psi auxiliary valve flow and 300 °C of capillary temperature. When running collision-induced dissociation (CID), the pressure was set to 1.5 mTorr.
The peptides (10 μg/mL) were prepared in PBS pH 7.2 containing 20 ng/ml proteinase K. The resulting mixture were incubated at 37 °C in a water bath and taken out at different time intervals (0, 5, 15, 30, 60, 120 minutes), followed by quenching the samples with ethyl alcohol and quantitating the peptides by LC-MS analysis as described above.

N36 (gp41 NHR peptide) = target: T2, N36 (gp41 NHR peptide) (Human immunodeficiency virus type 1 group M subtype B, UniProt P04578); assay: CD spectroscopy and thermal midpoint analysis of peptide/N36 complexes; type: physicochemical, HIV-1
T2 construct: gp41 NHR (“N36”, 546-581); made in house; host or cells: chemical solid-phase FMOC synthesis
T2 sequence (P04578 546-581): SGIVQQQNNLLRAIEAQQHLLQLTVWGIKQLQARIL
Experimental: Briefly, each peptide or peptide mixture was dissolved in phosphate-buffered saline (PBS: 50 mM sodium phosphate and 150 mM NaCl, pH 7.2) at the final concentration of 10 μM and incubated at 37 °C for 30 min before cooling down to 4 °C. The CD spectra of each sample were acquired on a Jasco spectropolarimeter (Model J-815, Jasco Inc., Japan) at 4 °C using a 5 nm bandwidth, 0.1 nm resolution, 0.1 cm path length and an average time of 5.0 sec. Spectra were corrected by the subtraction of a blank corresponding to the solvent composition of each sample. Thermal midpoint analysis was used to determine the temperature at which 50% of the 6-HB formed by the CHR and NHR would decompose. It was monitored at 222 nm from 4 °C to 98 °C by applying a thermal gradient of 5 °C/min. The melting curve was smoothed and the midpoint of the thermal unfolding transition (Tm) values was calculated using Jasco software utilities as described above.

NP1525 (A/E) = type: cell-based; conditions: primary HIV-1 isolate, subtype A/E; read-out: IC50 (nM), infection by primary isolate NP1525 (A/E)
[3] = rat liver homogenate (100 mg wet tissue/2.5 ml PBS pH 7.2, 9,000 g supernatant), peptide 10 μg/ml, 37 °C, LC-MS; triplicate
Experimental: as §1
The supernatants were collected.

94US_33931N (B) = conditions: read-out: IC50 (nM), infection by primary isolate 94US_33931N (B); primary HIV-1 isolate, subtype B
[4] = tested on: T20-resistant HIV-1 variant V38E/N42S; type: cell-based
[5] = tested on: T20-resistant HIV-1 variant V38A/N42T; type: cell-based
[6] = tested on: HIV-1IIIB (subtype B, X4); conditions: read-out: IC50, inhibition of infection by HIV-1IIIB; MT-2 cells, 100 TCID50, p24 ELISA day 4; triplicate, repeated twice
Text: (§2) Then, the culture supernatants were changed to fresh media. On the fourth day post-infection, culture supernatants were collected for detection of p24 antigen by ELISA. […] Then, the culture supernatants were changed to fresh media. On the fourth day post-infection, the culture supernatants were discarded and fresh media were complemented again. The supernatants were collected on the seventh day post-infection and tested for p24 antigen by ELISA as previously described. The percent inhibition of p24 production was calculated.

HIV-1Bal (subtype B, R5) = conditions: read-out: IC50, inhibition of infection by HIV-1Bal; M7 cells, 100 TCID50, p24 ELISA day 7; triplicate, repeated twice
Text: as §2

[7] = tested on: T20-resistant HIV-1 variant V38A/N42D; type: cell-based
92UG024 (D) = type: cell-based; conditions: primary HIV-1 isolate, subtype D; read-out: IC50 (nM), infection by primary isolate 92UG024 (D)

T1 sequence (P04578 546-581): as above

CC[C@H](C)[C@H](NC(=O)[C@H](CO)NC(=O)[C@H](CCC(=O)O)NC(=O)[C@H](CCC(=O)O)NC(=O)[C@H](CCC(N)=O)NC(=O)[C@H](CCCCN)NC(=O)[C@H](CCCCN)NC(=O)[C@@H](NC(=O)[C@H](CCC(N)=O)NC(=O)[C@H](CCC(=O)O)NC(=O)[C@H](CCC(=O)O)NC(=O)[C@@H](NC(=O)[C@H](CCCCN)NC(=O)[C@H](CCCCN)NC(=O)[C@@H](NC(=O)[C@H](CC(C)C)NC(=O)[C@H](CCC(=O)O)NC(=O)[C@H](CCC(=O)O)NC(=O)[C@H](CO)NC(=O)[C@H](CCCCN)NC(=O)[C@H](CCCCN)NC(=O)[C@@H](NC(=O)[C@H](CC(C)C)NC(=O)[C@H](CCC(=O)O)NC(=O)[C@H](CCC(=O)O)NC(=O)[C@@H](NC(=O)[C@H](CCCCN)NC(=O)[C@H](CCCCN)NC(=O)[C@H](CC(=O)O)NC(=O)[C@H](Cc1c[nH]c2ccccc12)NC(=O)[C@H](CCC(=O)O)NC(=O)[C@H](CCC(=O)O)NC(=O)[C@H](Cc1c[nH]c2ccccc12)NC(=O)[C@@H](NC(=O)[C@H](CCSC)NC(C)=O)[C@@H](C)O)[C@@H](C)CC)[C@@H](C)CC)[C@@H](C)CC)[C@@H](C)CC)[C@@H](C)CC)C(=O)N[C@@H](CCCCN)C(=O)N[C@@H](CCCCN)C(N)=O [AP3] (Ac-MTWEEWDKKIEELIKKSEELIKKIEEQIKKQEESIKK-NH2)
fold longer in vivo elimination half-life than T20 (AP3 versus T20, SD rat, i.v. 1 mg/kg): about 2.8 fold | Cmax (intravenous 1 mg/kg, male SD rats, n = 2, plasma by sandwich ELISA, PK Solver): 289.57 µg/mL | IC50 [1]: 240 nM | fold more potent than AP1 against 6-HB formation ([1]; AP3 versus AP1): about 30 fold | fold more potent than AP2 against 6-HB formation ([1]; AP3 versus AP2): ~15 fold | Fold change of IC50, HPS-1 ([2]; HPS-1 relative to N): 0.7 | Fold change of IC50, HPS-2 ([2]; HPS-2 relative to N): 0.2 | Fold change of IC50, HPS-3 ([2]; HPS-3 relative to N): 0.2 | Fold change of IC50, HPS-4 ([2]; HPS-4 relative to N): 0.1 | Fold change of IC50, HPS-5 ([2]; HPS-5 relative to N): 0.2 | IC50 ([2]; in presence of serum of HIV-1-infected patient HPS-1, read-out: IC50 (nM), HIV-1 IIIB infection, HPS-1): 17.7 ± 4.3 nM | IC50 ([2]; in presence of serum of HIV-1-infected patient HPS-2, read-out: IC50 (nM), HIV-1 IIIB infection, HPS-2): 5.1 ± 0.7 nM | IC50 ([2]; in presence of serum of HIV-1-infected patient HPS-3, read-out: IC50 (nM), HIV-1 IIIB infection, HPS-3): 4.2 ± 0.4 nM | IC50 ([2]; in presence of serum of HIV-1-infected patient HPS-4, read-out: IC50 (nM), HIV-1 IIIB infection, HPS-4): 2 ± 0.6 nM | IC50 ([2]; in presence of serum of HIV-1-infected patient HPS-5, read-out: IC50 (nM), HIV-1 IIIB infection, HPS-5): 5.1 ± 0.8 nM | remaining at 2 h, 10 μg/mL (proteinase K): 100% | Tm of complex with N36 (N36 (gp41 NHR peptide); CD thermal denaturation at 222 nm, 4 to 98 °C, 5 °C/min, 10 μM in PBS pH 7.2): 83.6 ^oC | α-helix content of complex with N36 (N36 (gp41 NHR peptide); CD, peptide/N36 mixture 10 μM in PBS pH 7.2, 4 °C): 77.84% | IC50 (NP1525 (A/E)): 32.3 ± 8.8 nM | in vitro metabolic stability in liver homogenate [3]: significantly enhanced in vitro metabolic stability over T20 | IC50 (94US_33931N (B)): 10.2 ± 0.7 nM | IC50 [4]: 42.4 ± 11.6 nM | IC50 [5]: 90 ± 21.5 nM | IC50 [6]: 3.06 nM | IC50 (HIV-1Bal (subtype B, R5)): 15.1 nM | IC50 [7]: 31.3 ± 6.62 nM | IC50 (92UG024 (D)): 16.5 ± 0.2 nM
